{
  "source": "patent US20250032581A1",
  "about": "“COMPOSITIONS AND ARTICLES COMPRISING AN ADNF POLYPEPTIDE” (RAMOT AT TEL-AVIV UNIVERSITY LTD., priority 2021, published 2025)",
  "key": {"[1]": {"settings": "cited from earlier work"}, "[2]": {"system": "differentiated N1E-115 cells expressing RFP-tagged EB3", "test": "Live imaging of EB3 comet-like structures (MT dynamics)", "format": "cell-based, mouse", "source_text": "Plasmid construction—Protein expressing plasmids were constructed as previously described based on pEGFP-C1 backbone and express full-length ADNP or the following truncated ADNP proteins: p.Glu830synfs*83, p.Lys408Valfs*31, p.Ser404* (as before). Inserts of cDNA carrying unique mutations were obtained from mRNA extracted from patient-derived lymphoblastoid cell lines and cDNA with full-length human ADNP was obtained from a control lymphoblastoid cell line with no mutation. Protein expressions were verified by fluorescent imaging and immunoblotting analysis as before.\nCell culture—Mouse neuroblastoma NIE-115 cells were maintained in Dulbecco's modified Eagle's medium, 10% fetal bovine serum, 2 mM glutamine and 100 U ml-1 penicillin, 100 mg ml-1 streptomycin (Biological Industries, Beit Haemek, Israel). The cells were incubated in 9 5% air/5% CO2 in a humidified incubator at 37° C.\nCell differentiation and co-transfection of overexpression plasmids—Cultured NIE-115 cells were plated on 35 mm dishes (81156, 60 p-Dish, Ibidi, Martinsried, Germany) at a concentration of 1.25×10^4 cells per dish and then were differentiated with reduced fetal bovine serum (2%) and DMSO (1.25%) containing medium for 5 days before transfection. 48 hrs before experiments N1E-115 cells were co-transfected with 1 μg EB3-RFP or mCherry-Tau (3R) plasmid with or without 2 μg of plasmids, coding to GFP conjugated to full-length human ADNP, or ADNP carried mutations. 1:3 ratios between total amount of transfected DNA and transfection reagent were used according to manufacture guidance (Lipofectamine2000, Thermo Fisher Scientific, Waltham, MA, USA) in all subsequent experiments.\nLive Imaging—48 hrs after transfection, differentiated NIE-115 cells (expressing EB3-RFP with or without GFP-conjugated to full-length ADNP or mutated ADNP) were incubated at 37° C. with a 5% CO2/95% air mixture in a thermostatic chamber placed on the stage of a Leica TCS SP5 confocal microscope (objective 100× (PL Apo) oil immersion, NA 1.4). Time-lapse images were automatically captured 3 sec during 1 min, using the Leica LAS AF software. After imaging all samples were also treated with NAP (SEQ ID NO: 2) or SKIP (SEQ ID NO: 21) in final concentrations of 10^−12M, and after 4 hrs time-lapse imaging was done again under the same conditions. Data was collected and analyzed by Imaris software.\nTo evaluate the effect of ADNP truncated proteins on MT dynamics time-lapse imaging of EB3 comet-like structures formed by RFP-tagged EB3 proteins that bind to MT plus-ends was performed. Two parameters of EB3 activity were used to assess MT dynamics—track length and track speed of EB3 comets, which reflect the length of freshly growing MTs and the speed of MT assembly, respectively. Furthermore, the present inventors aimed to determine whether NAP ([…] for 4 hrs) could prevent the deleterious effect of ADNP mutations."}, "[3]": {"system": "AT8 (hyperphosphorylated Tau)", "test": "AT8 immunohistochemistry (hyperphosphorylated Tau)", "format": "in vivo, mouse", "settings": "WT males, data not shown", "method": "AT8 Immunohistochemistry—experiment was performed as previously described (100). Mice were treated for 6 weeks with daily intranasal DD/NAP and were euthanized at 10.21±0.05 weeks of age."}, "[4]": {"system": "mice with the ASD-linked InsG3680 mutation (SHANK3)", "test": "Open field behavior in the SHANK3 mouse model", "format": "in vivo", "settings": "intranasal NAP once daily, five days a week for a month", "method": "To this end, mice with the ASD-linked InsG3680 mutation were used. Two behavioral assessments were performed on make mice: • 1) Open field behavior attesting to anxiety and depression (Open field behavioral assessment technology was previously described, e.g.); and • 2) Social recognition behavior, related to autistic traits (the social recognition test was previously described, e.g..\nThis surprising finding is of importance as there is a psychiatric illness and regression in individuals with Phelan-McDermid syndrome."}, "Tyr mice": {"system": "Tyr mice", "test": "Ultrasonic vocalizations (USV) and syntax analysis of P8 pups (DeepSqueak)", "format": "in vivo, mouse", "source_text": "The Intensity parameter is used to assess the effects of neuropathic pain, including mechanical allodynia. Max Contact Mean Intensity is the mean Intensity of a paw at Max Contact. Print length is the length (horizontal direction) of the complete print. The complete print is the sum of all contacts with the glass plate, as if the animal's paw would have been inked. Print width is the width (vertical direction) of the complete paw. Print area is the surface area of the complete print. Max Intensity is the maximum Intensity of the complete paw. Mean intensity is the mean Intensity of the complete paw. • USV: On P8, each pup was separated from the dam and placed in an empty cage for 6 minutes, in a quiet room and was recorded using the M500-384 USB Ultrasound Microphone (Petterson, Sweden). Pups were distinguished from one another using the tattoos listed above. After 6 minutes pups were reunited with its dam. Data were analyzed using DeepSqueak. Data were loaded onto DeepSqueak, frequencies between 40-70 kHz were analyzed using the mouse call network V2. Calls were denoised using post hoc denoising network. For syntax analysis, Syntax was classified using Wright K means network. Syntax transition probability charts were generated using DeepSqueak and Matlab. Further USV experiments were performed on P8 pups as previously described (12) with slight modifications."}, "ADNP^+/− MOUSE": {"system": "ADNP^+/− MOUSE", "design": "key: corrections by NAP treatment (+)", "settings": "Adnp+/− mouse (second symbol); cited from earlier work"}, "[5]": {"system": "Shank3-Adnp-actin interactions", "test": "Actin co-immunoprecipitations from mouse brain extracts", "source_text": "De novo heterozygous mutations in ADNP reproduced the autistic ADNP syndrome. ADNP mutations impair microtubule (MT) function, essential for synaptic activity. The ADNP MT-associating fragment NAPVSIPQ (NAP) (SEQ ID NO 2) contains an MT end-binding protein interacting domain, SxIP (mimicking the active-peptide, SKIP, SEQ ID NO 21). The inventors hypothesized that not all ADNP mutations are similarly deleterious and that the NAPV portion of NAPVSIPQ is biologically active. Using the eukaryotic linear motif (ELM) resource, the inventors identified a Src homology 3 (SH3) domain-ligand association site in NAP responsible for controlling signaling pathways regulating the cytoskeleton, namely NAPVSIP (SEQ ID NO: 2). Altogether, the inventors mapped multiple SH3-binding sites in ADNP. […] Site-directed-mutagenesis, abolishing the p.Lys408Valfs*31 SH3-binding motif, produced MT toxicity. […] Lastly, SH3 and multiple ankyrin repeat domains protein 3 (SHANK3), a major autism gene product, interact with the cytoskeleton through an actin-binding motif to modify behavior."}},
  "data": [
    {"smiles": "CC[C@H](C)[C@H](NC(=O)[C@H](CO)NC(=O)[C@@H](NC(=O)[C@@H]1CCCN1C(=O)[C@H](C)NC(=O)[C@@H](N)CC(N)=O)C(C)C)C(=O)N1CCC[C@H]1C(=O)N[C@@H](CCC(N)=O)C(=O)O", "note": "[NAP, NAPVSIPQ]", "values": [
      {"measurement": "bioavailability / cell penetration", "setting": "[1]", "result": "bioavailable by endocytosis"},
      {"measurement": "EB3 track length and speed", "setting": "[2]; 10^−12M, 4 hrs, vs. non-treated control, no significant differences between NAP and SKIP", "result": "increased EB3 track length and speed"},
      {"measurement": "EB3 comet speed and track length", "setting": "[2]; cells expressing ADNP p.Glu830synfs*83, NAP 4 hrs", "result": "significantly augmented"},
      {"measurement": "EB3 comet speed and track length", "setting": "[2]; cells expressing ADNP p.Ser404*, NAP 4 hrs", "result": "significantly augmented"},
      {"measurement": "EB3 comet track length and speed", "setting": "[2]; cells expressing full-length ADNP, NAP 4 hrs", "result": "did not further influence the effect of full-length ADNP"},
      {"measurement": "AT8 positive cells", "setting": "[3]", "result": "did not display a NAP effect"},
      {"measurement": "open field: cumulative duration in the center", "setting": "[4]", "result": "significantly increased by NAP treatment"},
      {"measurement": "total USVs", "setting": "Tyr mice; Tyr female and male P8 pups", "result": "no NAP effects"},
      {"measurement": "syntax", "setting": "Tyr mice; WT pups, data not shown", "result": "minor varied impact on WT pups"},
      {"measurement": "syntax transition probabilities, Xi square analysis Tyr vs. Tyr NAP", "setting": "Tyr mice; females, p<0.001", "result": "significant improvement with NAP treatment"},
      {"measurement": "syntax transition probabilities, Xi square analysis Tyr vs. Tyr NAP", "setting": "Tyr mice; males, p=0.027", "result": "same significant changes"},
      {"measurement": "NAP efficacy: visual evoked potential/axonal transport", "setting": "ADNP^+/− MOUSE", "result": "+/+"},
      {"measurement": "Shank3-Adnp-actin interactions", "setting": "[5]", "result": "NAP-mediated normalization of Shank3-Adnp-actin interactions"}
    ]}
  ]
}
